Experimental data published in patent US20070149515A1, “6-(2,4,6-Trifluorophenyl)-triazolopyrimidines, method for the production thereof, use thereof for controlling harmful fungi, and substances containing the same” (BASF Aktiengesellschaft, priority 2003, published 2007).

Tests used:
[1] = tested on: Pyrenophora teres; test: 1 day protective application against net blotch of barley; format: in vivo; details: 63 ppm, sprayed to runoff on barley seedlings; inoculated 24 hours after drying; assessed visually after 6 days; untreated plants 90% infected
Experimental: The active compounds were prepared separately or together as a stock solution with 0.25% by weight of active compound in acetone or DMSO. 1% by weight of the emulsifier Uniperol® EL (wetting agent with an emulsifying and dispersing action based on ethoxylated alkylphenols) was added to this solution and appropriately diluted with water to the desired concentration. Use example 2—Activity in 1 day protective application against net blotch of barley caused by Pyrenophora teres Leaves of pot-grown barley seedlings were sprayed to runoff point with an aqueous suspension in the active compound concentration given below. 24 hours after the spray coating had dried on, the test plants were inoculated with an aqueous suspension of spores of Pyrenophora [syn. Drechslera] teres, the causative agent of net blotch. The test plants were subsequently placed in a greenhouse at temperatures of between 20 and 24° C. and a relative atmospheric humidity of 95 to 100%. After 6 days, the extent of development of the disease was determined visually in % of infection of the total leaf area.

[2] = tested on: Sphaerotheca fuliginea; test: Protective application against powdery mildew on cucumber leaves; format: in vivo; details: 63 ppm, sprayed to runoff on cucumber seedlings 'Chinese Snake'; inoculated 20 hours after drying; assessed visually after 7 days; untreated plants 100% infected
Experimental: The active compounds were prepared separately or together as a stock solution with 0.25% by weight of active compound in acetone or DMSO. 1% by weight of the emulsifier Uniperol® EL (wetting agent with an emulsifying and dispersing action based on ethoxylated alkylphenols) was added to this solution and appropriately diluted with water to the desired concentration. Use example 1—Activity in protective application against powdery mildew on cucumber leaves caused by Sphaerotheca fuliginea Leaves of pot-grown cucumber seedlings of the variety “Chinese Snake” in the cotyledon stage were sprayed to runoff point with an aqueous suspension in the active compound concentration given below. 20 hours after the spray coating had dried on, the plants were inoculated with an aqueous suspension of spores of powdery mildew of cucumber (Sphaerotheca fuliginea). The plants were subsequently cultivated for 7 days in a greenhouse at temperatures of between. 20 and 24° C. and a relative atmospheric humidity of 60 to 80%. The extent of mildew development was then determined visually in % of infection of the cotyledon area.

SMILES | extent of development of the disease in % of infection of the total leaf area [1] | extent of mildew development in % of infection of the cotyledon area [2]
COc1nc2ncnn2c(N2CCC(C)CC2)c1-c1c(F)cc(F)cc1F [Compound I-5, 5-methoxy-6-(2,4,6-trifluorophenyl)-7-(4-methylpiperidinyl)[1,2,4]triazolo[1,5a]pyrimidine] | no infection | no infection
CC1CCN(c2c(-c3c(F)cc(F)cc3F)c(C#N)nc3ncnn23)CC1 [Compound I-2, 5-cyano-6-(2,4,6-trifluorophenyl)-7-(4-methylpiperidinyl)[1,2,4]triazolo[1,5a]pyrimidine] | no infection | no infection
